Test results reported in patent US20250325467A1, “COMPOSITIONS FOR PREVENTING OR TREATING SKIN AGING” (ESTETRA SRL, priority 2021, published 2025).

Experiments:
[1] = Tissue distribution (QWBA) of [^14C]-estetrol after a single oral dose in non-pigmented rats; type: in vivo, rat; details: for Concentration of radioactivity, Skin: Non-pigmented / Tissue:Blood ratio, Skin: Non-pigmented: non-pigmented rats, single oral 15 mg/kg
Method: Times for analysis were: 0.5, 1, 2, 5, 8, 24 and 48 hours
Distribution of radioactivity in tissues was determined and quantified using the Fuji FLA-5100 fluorescent image analyser and associated Tina and SeeScan software. Tissue concentrations of radioactivity were determined using calibrated autoradiographic microscales produced by GE Healthcare. A standard curve was produced using the microscales from which tissue concentrations of radioactivity were determined (nCi/g). These values were then converted into pg equivalents/g using the specific activity of the dose formulation.
Radioactivity concentrations are also reported as […] equivalents/g.

[2] = as above; type: in vivo; details: single oral 15 mg/kg, 3 hour (Rat 08F)
[3] = Tissue distribution (QWBA) of [^14C]-estetrol after a single oral dose in partially pigmented rats; details: for Concentration of radioactivity, Skin: Non-pigmented / Concentration of radioactivity, Skin: Pigmented / Tissue:Blood ratio, Skin: Non-pigmented / Tissue:Blood ratio, Skin: Pigmented / Total amount of radioactivity, Skin (non-pigmented) / Total amount of radioactivity, Skin (pigmented): single oral 15 mg/kg
Method: Tissue distribution was determined in female rats (partially pigmented and non-pigmented) using [^14C]-estetrol.
A group of six female Lister Hooded rats each received a single oral dose of [^14C]-estetrol. At each selected time (see below) one animal was killed (by overdose of CO2) followed by immediate snap freezing in hexane/solid CO2. The carcasses were retained for examination of the tissue distribution of radioactivity using the technique of quantitative whole body autoradiography (QWBA).
Times for analysis were: (0.5, 8, and 24 hours, 7, 14 and 35 days)
Frozen carcasses were subjected to whole-body autoradiography.
Where concentrations are reported, radioactivity was assumed to be associated with [^14C]-estetrol or any metabolic products derived from [^14C]-estetrol. The specific activities of the dosed test compounds were used for the calculation of concentrations in all cases. Recoveries of radioactivity are reported as percentage of administered radioactivity (% dose). Radioactivity concentrations are also reported as pg equivalents/g.

[4] = partially pigmented rats, 0.5 hours
[5] = partially pigmented rats, 8 hours
[6] = partially pigmented rats, 24 hours
[7] = partially pigmented rats, 7 days
[8] = partially pigmented rats, 14 days
[9] = partially pigmented rats, 35 days

For [^14C]-estetrol, the “concentration of radioactivity, liver (greatest concentration)” value ([1]; female non-pigmented rats, single oral dose, 0.5 hours) was 12.5 microgram equivalents/gram, the “Concentration of radioactivity, Skin: Non-pigmented” value (shortened to “Concentration … Non-pigmented”) ([1]; 0.5 hours) was 2.59 microgram equivalents/gram and the “Tissue:Blood ratio, Skin: Non-pigmented” value ([1]; 0.5 hours) was 1.05. The “Concentration … Non-pigmented” value ([1]; 1 hour) was 0.771 microgram equivalents/gram, the “Concentration … Non-pigmented” value ([1]; 2 hours) was 0.465 microgram equivalents/gram and the “Tissue:Blood ratio, Skin: Non-pigmented” value ([1]; 2 hours) was 1.72. The “Concentration … Non-pigmented” value ([1]; 5 hours) was 0.189 microgram equivalents/gram, the “Tissue:Blood ratio, Skin: Non-pigmented” value ([1]; 5 hours) was 1.66 and the “Concentration … Non-pigmented” value ([1]; 8 hours) was 0.361 microgram equivalents/gram. For the same substance, the “Tissue:Blood ratio, Skin: Non-pigmented” value ([1]; 8 hours) was 1.77, the “Concentration … Non-pigmented” value ([1]; 24 hours) was “BLQ” and the “Concentration … Non-pigmented” value ([1]; 48 hours) was “BLQ”. For the same substance, the “Tissue:Blood ratio, Skin: Non-pigmented” value [2] was 0.99, the “concentration of radioactivity, liver (greatest concentration)” value ([3]; female partially pigmented rats, single oral dose, 0.5 hours) was 13.7 μg equivalents/g and the “Concentration … Non-pigmented” value [3, 4] was 1.89 microgram equivalents/gram. For the same substance, the “Concentration of radioactivity, Skin: Pigmented” value (“Concentration … Skin: Pigmented” for short) [3, 4] was 2.85 microgram equivalents/gram, the “Tissue:Blood ratio, Skin: Non-pigmented” value [3, 4] was 0.71 and the “Tissue:Blood ratio, Skin: Pigmented” value [3, 4] was 1.07. The “Total amount of radioactivity, Skin (non-pigmented)” value (“Total amount … (non-pigmented)” for short) [3, 4] was 1.136 % dose administered/tissue, the “Total amount of radioactivity, Skin (pigmented)” value (shortened to “Total amount … (pigmented)”) [3, 4] was 1.714 % dose administered/tissue and the “Concentration … Non-pigmented” value [3, 5] was 0.090 microgram equivalents/gram. The “Concentration … Skin: Pigmented” value [3, 5] was 0.161 microgram equivalents/gram, the “Tissue:Blood ratio, Skin: Non-pigmented” value [3, 5] was 0.56 and the “Tissue:Blood ratio, Skin: Pigmented” value [3, 5] was 1.01. The “Total amount … (non-pigmented)” value [3, 5] was 0.059 % dose administered/tissue, the “Total amount … (pigmented)” value [3, 5] was 0.099 % dose administered/tissue and the “Concentration … Non-pigmented” value [3, 6] was “BLQ”. The “Concentration … Skin: Pigmented” value [3, 6] was 0.113 microgram equivalents/gram, the “Total amount … (non-pigmented)” value [3, 6] was <0.041 % dose administered/tissue and the “Total amount … (pigmented)” value [3, 6] was 0.061 % dose administered/tissue. For the same substance, the “Concentration … Non-pigmented” value [3, 7] was “BLQ”, the “Concentration … Skin: Pigmented” value [3, 7] was “BLQ” and the “Total amount … (non-pigmented)” value [3, 7] was <0.043 % dose administered/tissue. For the same substance, the “Total amount … (pigmented)” value [3, 7] was <0.043 % dose administered/tissue, the “Concentration … Non-pigmented” value [3, 8] was “BLQ” and the “Concentration … Skin: Pigmented” value [3, 8] was “BLQ”. For the same substance, the “Total amount … (non-pigmented)” value [3, 8] was <0.038 % dose administered/tissue, the “Total amount … (pigmented)” value [3, 8] was <0.038 % dose administered/tissue and the “Concentration … Non-pigmented” value [3, 9] was “BLQ”. The “Concentration … Skin: Pigmented” value [3, 9] was “BLQ”, the “Total amount … (non-pigmented)” value [3, 9] was <0.041 % dose administered/tissue and the “Total amount … (pigmented)” value [3, 9] was <0.041 % dose administered/tissue. The “concentration of radioactivity, liver” value ([3]; partially pigmented rats, single oral dose, 7 days after dosing) was 0.410 μg equivalents/g, the “concentration of radioactivity, majority of tissues (BLQ)” value ([3]; partially pigmented rats, single oral dose, by 24 hours) was under 0.076 μg equivalents/g and the “concentration of radioactivity, all analyzed tissues except liver, including uveal tract and pigmented skin” value ([3]; partially pigmented rats, single oral dose, by 7 days) was “at or below the limit of quantification”.
